Like-named read-outs stand apart in the source and are kept apart here.
How the values were obtained:
[1] = system: short-term antigen-specific T cell lines generated from PBMCs; parameters: key: +: ELISPOT: Immungenicity of the peptide shown by IFN-gamma ELISPOT analysis; settings: immunogenicity by IFN-gamma ELISPOT, * data from published resources, cited from earlier work
HPV16-positive cells [2] = assay: HLA immunoprecipitation and LC-MS of peptides presented by HPV16-positive cells; assay type: cell-based, human; parameters: key: +: presentation: HLA-presentation of the peptide by HPV16-positive cells shown by MS; settings: HLA-presentation by HPV16-positive cells shown by MS
Procedure: HLA immunoprecipitation (IP) was performed according to previously published protocols (Bassani-Sternberg et al., 2016; Chong et al., 2018). Briefly, HPV16+ cells were lysed with a lysis buffer containing 1% N-octyl-β-D glucopyranoside, 0.25% Na-Deoxycholate, protease inhibitor cocktail (Sigma-Aldrich, Mannheim, Germany)/PMSF (Carl Roth, Karlsruhe, Germany) in PBS. After centrifugation at 40,000×g, 4° C., for 30 min. HLA-peptide complexes were immuno-precipitated by incubation with mouse anti-human HLA-A,B,C monoclonal antibody (clone W6/32, Biolegend, San Diego, CA, USA) or in some cases HLA-type-specific antibody (HLA-A2: clone BB7.2, HLA-A3: clone GAP A3, HLA-A11/A24: clone Hb 164, HLA-B7: clone BB7.1) crosslinked to protein G Sepharose beads (Cytiva, Marlborough, MA, USA) or Protein A—Sepharose™ 4B (Invitrogen Corporation, Camarillo, CA, USA) for 4 h at 4° C. under constant mixing on a rotating wheel. Supernatant was discarded after centrifugation at 3200×g, for 3 min at RT. Pelleted HLA-peptide complexes bound to antibody-beads were washed 3 times in each of the following steps: first with ice-cold 20 mM Tris-HCl pH 8 containing 150 mM NaCl followed by the same buffer but with additional […] and finally with 20 mM Tris-HCl alone. Peptides were eluted from antibody-beads bound to HLA by 0.3% TFA. Resulting peptides were desalted by reverse-phase purification using a SepPak 96-well plate (Waters, Milford, MA, USA). Peptides eluted in 28% ACN in 0.1% TFA were dried by vacuum centrifugation (Concentrator plus, Eppendorf, Hamburg, Germany).
The set of predicted target peptides were acquired as stable isotope labelled (SIL) peptides from commercial suppliers (crude synthesis product; isotope purity >99 atom % ^13C and ^15N). First, analysis by direct infusion was performed in order to optimize normalized collision energy (NCE) for each single peptide in a mixture. NCE values were ranging from 4% to 42% and each value, in 2% steps, was measured 4 times for four charge states (1+ to 4+) of each peptide. Orbitrap Exploris 480 (Thermo Fisher Scientific) in targeted MS2 scan (PRM) was operated using 30K resolution at 200 m/z, standard automated gain control (AGC) target, 350 ms maximum injection time (IT), 1 micro scan in centroid data acquisition mode. For all measurements, isolation window was 0.4, 0.7, 1 or 1.5 m/z, depending on the mass of the precursor, as recommended by the manufacturer. Ion chromatograms of all expected transitions were extracted with 12 ppm mass tolerance from the centroided spectra and deconvoluted using purpose-made R scripts. The best NCE value was selected so that the intensity of any 5th most intense transitions is maximized, thereby maximizing the chance of detecting at least 5 transitions. The retention time (RT) for each peptide was determined by LC-MS in DDA mode with an inclusion list of target peptides in all four charge-states. The MS resolution was set to 120K, 3e6 AGC target, 50 ms maximum IT and the LC operated as described below.
For LC-MS, samples were dissolved in 2.5 to 5 μl of 5% ACN in 0.1% TFA with 50 fmol of Peptide Retention Time Calibration (PRTC) Mixture (88321, Pierce™) spiked in, followed by 3 min bath sonication. All samples were analysed by liquid chromatography (U-3000, Thermo Fisher Scientific) coupled to Orbitrap Exploris 480 (Thermo Fisher Scientific). […]

HPV16-positive cells [3] = system: HPV16-positive cells; parameters: key: +: presentation: HLA-presentation of the peptide by HPV16-positive cells shown by MS; settings: HLA-presentation by HPV16-positive cells shown by MS; * data from published resources; cited from earlier work
[4] = system: short-term antigen-specific T cell lines generated from PBMCs; assay: Interferon-γ ELISpot assay on short-term peptide-specific T cell lines from PBMCs; assay type: cell-based, human; parameters: key: +: ELISPOT: Immungenicity of the peptide shown by IFN-gamma ELISPOT analysis; settings: immunogenicity by IFN-gamma ELISPOT

| Substance | ELISpot [1] | presentation (HPV16-positive cells [2]) | presentation (HPV16-positive cells [3]) | ELISpot [4] | ELISpot ([4]; B15) | ELISpot ([1]; B07) |
| --- | --- | --- | --- | --- | --- | --- |
| 1 (ISEYRHYCY; Human papillomavirus 16) [compound 1] | +* | + |  |  |  |  |
| 2 (YMLDLQPET; Human papillomavirus 16) [compound 2] | +* |  | +* |  |  |  |
| 3 (TTLEQQYNK; Human papillomavirus 16) [compound 3] |  | + |  | + |  |  |
| 4 (RAHYNIVTF; Human papillomavirus 16) [compound 4] |  | + |  |  | +(B15) | +*(B07) |
| 5 (RPRKLPQL; Human papillomavirus 16) [compound 5] |  | + |  | + |  |  |
| 6 (LQPETTDLY; Human papillomavirus 16) [compound 6] | +* | + |  |  |  |  |

Reference: patent US20260240974A1, “A T[…] VACCINE BASED ON VALIDATED TARGET EPITOPES” (Deutsches Krebsforschungszentrum Stiftung des öffentlichen …, priority 2023, published 2026)
